Laboratory results published in EP4603105A1, “PHARMACEUTICAL COMPOSITION CONTAINING CYCLIC COMPOUND HAVING SELECTIVE KRAS INHIBITORY EFFECT AGAINST HRAS AND NRAS” (CHUGAI SEIYAKU KABUSHIKI KAISHA, priority 2022, dated 2024).

Legend:
[1] = biological target: HRAS wild-type protein (Homo sapiens, UniProt P01112); test: Binding to HRAS by surface plasmon resonance (SPR), KD and KD ratio to KRAS
Summary of the method: (§1)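 GDP-loaded biotinylated Avi-tag RAS proteins (E. coli-expressed) captured on a Biotin CAPture chip at ~100–300 RU; single-cycle kinetics at 30°C, 100 µL/min, 75 s injections of rising compound concentrations. HBS pH 7.4 running buffer with 1 mM DTT, 10 mM MgCl2, 10 µM GDP, 4% DMSO. KD from 1:1 binding fit.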

[2] = tested on: human lung cancer strain NCI-H441; format: cell-based
Summary of the method: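 Readout: […] after the ATP-based reagent. Compound: serial dilutions in dimethyl sulfoxide.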

[3] = biological target: GDP-bound NRAS wild-type protein (Homo sapiens, UniProt P01111); test: Binding to NRAS by surface plasmon resonance (SPR), KD and KD ratio to KRAS
GDP-bound NRAS wild-type protein, sequence (P01111 whole entry): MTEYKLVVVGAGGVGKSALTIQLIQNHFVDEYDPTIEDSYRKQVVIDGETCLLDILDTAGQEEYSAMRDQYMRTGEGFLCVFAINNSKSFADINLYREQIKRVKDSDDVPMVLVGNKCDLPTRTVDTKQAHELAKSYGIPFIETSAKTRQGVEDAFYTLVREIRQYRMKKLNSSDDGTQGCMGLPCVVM
Summary of the method: as §1

[4] = biological target: GDP-bound KRAS wild-type protein (Homo sapiens, UniProt P01116); test: Binding to KRAS by surface plasmon resonance (SPR), dissociation constant KD
GDP-bound KRAS wild-type protein, sequence (P01116 1-188 isoform P01116-2): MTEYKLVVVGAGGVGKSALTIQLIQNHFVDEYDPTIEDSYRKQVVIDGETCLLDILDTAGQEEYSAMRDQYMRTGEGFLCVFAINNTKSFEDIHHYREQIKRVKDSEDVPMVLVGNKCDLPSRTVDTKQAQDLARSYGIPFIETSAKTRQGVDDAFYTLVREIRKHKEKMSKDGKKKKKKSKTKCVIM
Summary of the method: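 Each cycle, GDP-bound biotin-Avi RAS was captured (~100–300 RU), compound concentrations were injected low to high for 75 s each at 100 µL/min, then the chip was regenerated. Buffer: HBS pH 7.4, 10 mM MgCl2, 10 µM GDP, 1 mM DTT, 4% DMSO; 30°C. KD from a 1:1 binding model.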

[5] = ratio of KD value for HRAS wild-type protein to KD value for KRAS (SPR)
[6] = ratio of KD value for GDP-bound NRAS wild-type protein to KD value for KRAS (SPR)
[7] = Single Cycle Kinetics, 1:1 binding model
[8] = ratio of KD for HRAS wild-type protein to KD for KRAS
[9] = ratio of KD for GDP-bound NRAS wild-type protein to KD for KRAS
[10] = ratio of the KD value with respect to HRAS wild-type protein to the KD value with respect to KRAS
[11] = ratio of the KD value with respect to GDP-bound NRAS wild-type protein to the KD value with respect to KRAS

HRAS wild-type protein, sequence (P01112 whole entry): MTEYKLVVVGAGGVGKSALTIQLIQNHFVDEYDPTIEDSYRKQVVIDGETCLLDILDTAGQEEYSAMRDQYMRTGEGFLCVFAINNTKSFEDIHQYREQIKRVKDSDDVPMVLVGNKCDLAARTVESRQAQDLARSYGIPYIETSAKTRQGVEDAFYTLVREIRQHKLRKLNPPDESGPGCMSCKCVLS

Structure (SMILES) | HRAS /KRAS [1, 5] | IC50 [2] | NRAS /KRAS [3, 6] | Kd [4, 7] | other results
CCCC[C@H]1C(=O)N[C@@H]([C@@H](C)CC)C(=O)N(C)CC(=O)N(C)[C@H]2C/C=C\CCN(C2=O)[C@@H](Cc2ccc(C(F)(F)F)cc2)C(=O)N(C)CC(=O)N[C@@H](CCc2cc(F)c(C(F)(F)F)c(F)c2)C(=O)N2C[C@H](OCC)C[C@H]2C(=O)NC2(CC(F)(F)C2)C(=O)N(C)[C@@H](C2CCCC2)C(=O)N(C)[C@H](C(=O)N(C)C)CC(=O)N1C [PP1740] | A (a compound having 10 or more and less than 20 is denoted as A) | 3.6 nM | A (a compound having 10 or more and less than 20 is denoted as A) | 0.053 nM | 
CCO[C@@H]1C[C@H]2C(=O)NC3(CC(C)(C)C3)C(=O)N(C)[C@@H](C3CCCC3)C(=O)N(C)[C@H](C(=O)N(C)C)CC(=O)N(C)[C@@H]([C@@H](C)OC)C(=O)N[C@@H]([C@@H](C)CC)C(=O)N(C)CC(=O)N(C)[C@H]3C/C=C\CCN(C3=O)[C@@H](Cc3ccc(C)cc3)C(=O)N(C)CC(=O)N[C@@H](CCc3ccc(C(F)(F)F)c(Cl)c3)C(=O)N2C1 [PP3209] |  | 5.5 nM |  |  | HRAS /KRAS [1, 8]: B (a compound having 3 or more and less than 10 is denoted as B); NRAS /KRAS [3, 9]: A (a compound having 10 or more and less than 20 is denoted as A); Kd ([4]; 1:1 binding model): 0.1 nM
CCO[C@@H]1C[C@H]2C(=O)NC3(CCC3)C(=O)N(C)[C@@H](C3CCCC3)C(=O)N(C)[C@H](C(=O)N(C)C)CC(=O)N(C)[C@@H](CC)C(=O)N[C@@H]([C@@H](C)CC)C(=O)N(C)CC(=O)N(C)[C@H]3CCCCN(C3=O)[C@@H](Cc3ccc(C(F)(F)F)cc3)C(=O)N(C)CC(=O)N[C@@H](CCc3ccc4ccsc4c3)C(=O)N2C1 [PP0888] |  | 25.6 nM |  |  | HRAS /KRAS [1, 8]: B (a compound having 3 or more and less than 10 is denoted as B); NRAS /KRAS [3, 9]: C (A compound having a KD ratio of 0.1 or more and less than 3 is denoted as C); Kd ([4]; Single Cycle Kinetics): 0.17 nM
CC[C@H](C)[C@@H]1NC(=O)[C@H](CC2CCC2)N(C)C(=O)C[C@@H](C(=O)N(C)C)N(C)C(=O)[C@H](C2CCCC2)N(C)C(=O)C2(CCC2)N(C)C(=O)[C@@H]2C[C@@H](C)CN2C(=O)[C@H](CCc2cc(F)c(C(F)(F)F)c(F)c2)NC(=O)CN(C)C(=O)[C@H](Cc2ccc(C)cc2)N2CC/C=C\C[C@@H](C2=O)N(C)C(=O)CN(C)C1=O [PP1803] | B (a compound having 3 or more and less than 10 is denoted as B) | 7.6 nM | A (a compound having 10 or more and less than 20 is denoted as A) | 0.1 nM | 
CC[C@H](C)[C@@H]1NC(=O)[C@H](CC(C)C)N(C)C(=O)C[C@@H](C(=O)N(C)C)N(C)C(=O)[C@H](C2CCCC2)N(C)C(=O)C2(CCCC2)NC(=O)[C@@H]2CCCN2C(=O)[C@H](CCc2ccc(C(F)(F)F)c(Cl)c2)NC(=O)CN(C)C(=O)[C@H](Cc2ccc(C)cc2)N2CC=CCOC[C@H](C2=O)N(C)C(=O)CN(C)C1=O [PP0629] |  | 45.1 nM |  | 2.4 nM | HRAS /KRAS [1, 10]: C (A compound having a KD ratio of 0.1 or more and less than 3 is denoted as C); NRAS /KRAS [3, 11]: B (a compound having 3 or more and less than 10 is denoted as B)
CC[C@H](C)[C@@H]1NC(=O)[C@H](CC)N(C)C(=O)C[C@@H](C(=O)N(C)C)N(C)C(=O)[C@H](C2CCCC2)N(C)C(=O)C2(CCC2)N(C)C(=O)[C@@H]2C[C@@H](C)CN2C(=O)[C@H](CCc2cc(F)c(C(F)(F)F)c(F)c2)NC(=O)CN(C)C(=O)[C@H](Cc2ccc(C)cc2)N2CC/C=C\C[C@@H](C2=O)N(C)C(=O)CN(C)C1=O [PP1787] | B (a compound having 3 or more and less than 10 is denoted as B) | 9 nM | A (a compound having 10 or more and less than 20 is denoted as A) | 0.071 nM | 
CCO[C@@H]1C[C@H]2C(=O)NC3(CCC3)C(=O)N(C)[C@@H](C3CCCC3)C(=O)N(C)[C@H](C(=O)N(CC)CC)CC(=O)N(C)[C@@H](CC(F)F)C(=O)N[C@@H]([C@@H](C)CC)C(=O)N(C)CC(=O)N(C)[C@H]3C/C=C\CCN(C3=O)[C@@H](Cc3ccc(C(F)(F)F)cc3)C(=O)N(C)CC(=O)N[C@@H](CCc3cc(F)c(C(F)(F)F)c(F)c3)C(=O)N2C1 [PP1309] |  | 5.3 nM |  | 0.16 nM | HRAS /KRAS ([1]; ratio of KD with respect to HRAS wild-type protein to KD with respect to KRAS): A (a compound having 10 or more and less than 20 is denoted as A); NRAS /KRAS ([3]; ratio of KD with respect to GDP-bound NRAS wild-type protein to KD with respect to KRAS): A (a compound having 10 or more and less than 20 is denoted as A)
CCCOC[C@H]1C(=O)N[C@@H]([C@@H](C)CC)C(=O)N(C)CC(=O)N(C)[C@H]2C/C=C\CCN(C2=O)[C@@H](Cc2ccc(C(F)(F)F)cc2)C(=O)N(C)CC(=O)N[C@@H](CCc2ccc(C(F)(F)F)c(OC)c2)C(=O)N2C[C@@H](C)C[C@H]2C(=O)NC2(CCC2)C(=O)N(C)[C@@H](C2CCCC2)C(=O)N(C)[C@H](C(=O)N(C)CCC)CC(=O)N1C [PP2028] |  | 17.5 nM |  | 0.11 nM | HRAS /KRAS [1, 10]: B (a compound having 3 or more and less than 10 is denoted as B); NRAS /KRAS [3, 11]: A (a compound having 10 or more and less than 20 is denoted as A)
